From patent US7671080B2, “1-benzylindole-2-carboxamide derivatives” (N.V. Organon, priority 2005, dated 2010)

Target: T1, human cannabinoid CB1 receptor (Homo sapiens, UniProt P21554)
T1 construct: expressed in transfected cells; co-transfected with AP1-luciferase reporter
Test: In-vitro determination of efficacy and potency at the human CB1 receptor expressed in CHO cells (AP1-luciferase reporter, antagonism of CP-55,940)
Format: cell-based
Procedure: In-Vitro Determination of Efficacy and Potency at the Human CB1 Receptor Expressed in CHO Cells
Chinese hamster ovary (CHO) cells, which stably express the human cannabinoid CB1 receptor were co-transfected with a luciferase reporter gene which is under the regulatory control of an AP1-response element (AP1 luc). The cells were suspended in commercially available DMEM/F12 nut mix without phenol red, containing penicillin/streptomycin (50 U/50 μg/ml) and fungizone (1 μg/ml) before being seeded into white walled, white bottomed 96 well plates at a density of 3×10^4 cells per well (100 μl final volume) and incubated overnight (approximately 18 hrs at 37° C., 5% CO2 in air) prior to assay.
10 μl of each dilution was added to the relevant wells in the cell plate to give a final concentration range of 10 μM to 0.1 nM.
Plates were incubated for 5 hours at 37° C. before addition of 100 μl LucLite reagent to each well (reconstituted as per manufacturer's instructions). Plates were sealed with Top Seal and counted on the Packard TopCount (single photon counting, 0.01 minute count time, no count delay).
Following stimulation of the CB1 receptor, luciferase expression is enhanced and this can be measured as an increase in enzyme activity. This reporter system is therefore used as a functional test to evaluate the potency of antagonist compounds at the CB1 receptor. Data was analysed using curve fitting and a minimum sum of squares method to produce pEC50 values.

T1 sequence (P21554 whole entry): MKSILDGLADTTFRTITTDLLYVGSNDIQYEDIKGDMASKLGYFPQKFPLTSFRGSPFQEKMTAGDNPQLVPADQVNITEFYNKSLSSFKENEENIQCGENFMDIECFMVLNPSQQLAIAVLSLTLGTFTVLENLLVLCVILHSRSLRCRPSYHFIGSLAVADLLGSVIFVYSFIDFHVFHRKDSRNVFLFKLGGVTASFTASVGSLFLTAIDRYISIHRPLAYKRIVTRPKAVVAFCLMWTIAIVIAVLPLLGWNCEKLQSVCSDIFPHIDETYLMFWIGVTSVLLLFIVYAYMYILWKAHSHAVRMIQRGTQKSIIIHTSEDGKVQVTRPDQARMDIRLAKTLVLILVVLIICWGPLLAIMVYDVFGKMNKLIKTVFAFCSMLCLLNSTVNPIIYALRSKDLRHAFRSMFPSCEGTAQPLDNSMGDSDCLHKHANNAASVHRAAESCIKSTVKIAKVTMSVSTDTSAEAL

| Structure (SMILES) | IC50 |
| --- | --- |
| N#Cc1ccc2c(c1)cc(C(=O)N[C@@H]1CCC[C@H]1O)n2Cc1cccc(OC(F)(F)F)c1 (relative stereo) [Example 54, trans-5-Cyano-1-(3-trifluoromethoxybenzyl)-1H-indole-2-carboxylic acid (2-hydroxy-cyclopentyl)amide] | 1 to 10 nM |
| CC(C)OCCCNC(=O)c1cc2cc(Cl)ccc2n1Cc1cccc(OC(F)(F)F)c1 [Example 15, 5-Chloro-1-(3-trifluoromethoxybenzyl)-1H-indole-2-carboxylic acid (3-isopropoxypropyl)amide] | 10 to 100 nM |
| N#Cc1ccc2c(c1)cc(C(=O)NC[C@H]1CCCC[C@@H]1O)n2Cc1cccc(OC(F)(F)F)c1 (relative stereo) [Example 34, trans-5-Cyano-1-(3-trifluoromethoxybenzyl)-1H-indole-2-carboxylic acid (2-hydroxy-cyclohexylmethyl)amide] | < 1 nM |
| N#Cc1ccc2c(c1)cc(C(=O)NCC1(O)CCCCC1)n2Cc1cccc(OC(F)(F)F)c1 [Example 60, 5-Cyano-1-(3-trifluoromethoxybenzyl)-1H-indole-2-carboxylic acid (1-hydroxy-cyclohexylmethyl)amide] | 1 to 10 nM |
| CC(O)(CCNC(=O)c1cc2cc(C#N)ccc2n1Cc1cccc(OC(F)(F)F)c1)C(F)(F)F (stereo not shown) [Example 71, 5-Cyano-1-(3-trifluoromethoxybenzyl)-1H-indole-2-carboxylic acid (4,4,4-trifluoro-3-hydroxy-3-methylbutyl)amide] | 1 to 10 nM |
| CN1CCN(c2cccc(Cn3c(C(=O)NC[C@H]4CCCC[C@@H]4O)cc4cc(C#N)ccc43)c2)CC1 (relative stereo) [Example 47, trans-5-Cyano-1-[3-(4-methyl-piperazin-1-yl)-benzyl]-1H-indole-2-carboxylic acid (2-hydroxy-cyclohexylmethyl)amide] | 10 to 100 nM |
| N#Cc1ccc2c(c1)cc(C(=O)NCC1(O)CCCC1)n2Cc1cccc(OC(F)(F)F)c1 [Example 65, 5-Cyano-1-(3-trifluoromethoxybenzyl)-1H-indole-2-carboxylic acid (1-hydroxy-cyclopentylmethyl)amide] | 1 to 10 nM |
| COc1ccc(OC(F)(F)F)cc1Cn1c(C(=O)NCC(C)(C)CO)cc2cc(C#N)ccc21 [Example 22, 5-Cyano-1-(2-methoxy-5-trifluoromethoxybenzyl)-1H-indole-2-carboxylic acid (3-hydroxy-2,2-dimethylpropyl)amide] | 1 to 10 nM |
| N#Cc1ccc2c(c1)cc(C(=O)NCC1(CO)CCCC1)n2Cc1cccc(OC(F)(F)F)c1 [Example 68, 5-Cyano-1-(3-trifluoromethoxybenzyl)-1H-indole-2-carboxylic acid (1-hydroxymethyicyclopentylmethyl)amide] | < 1 nM |
| Cc1ccc(C(F)(F)F)cc1Cn1c(C(=O)NCCC(C)(C)O)cc2cc(C#N)ccc21 [Example 64, 5-Cyano-1-(2-methyl-5-trifluoromethylbenzyl)-1H-indole-2-carboxylic acid (3-hydroxy-3-methylbutyl)amide] | 1 to 10 nM |
